Like-named read-outs stand apart in the source and are kept apart here.
Assays:
[1] = Cytotoxicity against primary mouse macrophages; type: cell-based
Source text: 1 In Vitro Anti- T. cruzi (Trypomastigote) Activity and Cytotoxicity Assessment of Hit 1 Analogs ^a | column: PMM CC50 (μM)

[2] = system: T. cruzi Tulahuen CL2 β-galactosidase strain; test: Antitrypanosomal screening, anti-T. cruzi (trypomastigote) activity, CPRG photometric method; type: cell-based; details: Trypanosoma cruzi; Tulahuen CL2 β-galactosidase strain on MRC-5SV2; values in parentheses mean ± SEM of two experiments
Procedure: A preliminary assay was conducted to evaluate the analogs’ in vitro cytotoxicity and antitrypanosomatid activity against T. cruzi Tulahuen strain (Table ). […] However, the promising results of analog 16 encouraged us to conduct more in-depth studies on this compound.
Anti-parasitic assays were conducted following established protocols outlined in earlier literature. In brief, for assessing anti-T. cruzi activity, the Tulahuen CL2 β-galactosidase strain (nifurtimox-sensitive) was employed and maintained on MRC-5SV2 (human lung fibroblast). A total of 4 × 10^3 cells were infected with 4 × 10^4 parasites per well. The synthesized analogs were tested at concentrations ranging from 1.56 to 50.00 μM. Parasite burdens were evaluated after the addition of the substrate CPRG (chlorophenol red ß-D-galactopyranoside). The change in color was measured spectrophotometrically at 540 nm after 4 h of incubation at 37°C. In all assays, parasite growth was compared to untreated-infected controls (100% growth) and noninfected controls (0% growth). Results were expressed as the percentage of parasite reduction at different drug concentrations and used to calculate IC50 values from the dose–response curves.

[3] = Preliminary cytotoxicity assay, resazurin; type: cell-based; details: human MRC-5 cell line, 3 days incubation
Procedure: MRC-5SV2 cell cytotoxicity was assessed following the methodology outlined in earlier literature. Briefly, cells at a concentration of 1.5 × 10^5 cells/mL were cultured with compound dilutions at 37 °C and 5% CO2. Cell growth was compared to untreated-control wells (100% cell growth) and medium-control wells (0% cell growth). After 3 days of incubation, cell viability was fluorometrically assessed following the addition of 50-μL resazurin per well. Fluorescence was measured after 4 h at 37 °C (λex 550 nm, λem 590 nm). The results were expressed as the percentage reduction in cell growth/viability compared to control wells, and an IC50 value was determined.

trans-sialidase (TcTS) = details: literature, cited from earlier work; for inhibition of trans-sialidase: in words
[4] = system: T. cruzi intracellular amastigotes (Colombian strain) in LLC-MK2 cells; test: Antiamastigote activity, infection index, treatment after infection, LLC-MK2; type: cell-based, Trypanosoma cruzi; details: infected LLC-MK2, 48 h treatment after infection
Procedure: (§1) Considering the dynamics of T. cruzi infection in humans, characterized by an increase in parasitic load through intracellular replication of amastigote forms in various cell types, we evaluated the action of the compounds in LLC-MK2 (epithelial cells) and C2C12 (myoblasts) using an in vitro infection model.
(§2) The antiamastigote activity was assessed by calculating the infection index, defined as the percentage of infected cells multiplied by the mean number of amastigotes per cell. Noninfected control cells were subjected to identical treatment conditions to evaluate the cytotoxicity of the compounds (CC50). This comprehensive approach allowed for the simultaneous assessment of antiparasitic efficacy and compound-induced cytotoxicity, offering valuable insights into their therapeutic potential.
(§3) In the infection plate each well was added 50 μL of cold methanol for cell fixation. The plate was kept at −20 °C for 1 h. After this period, the wells were blocked with 50 μL of PBS 1X-Saponin 0.1 + 10% rabbit serum for 10 min at room temperature. Following, the wells were washed four times with PBS 1X-Saponin 0.1% and 50 μL of the same solution was added to each well, incubating for 20 min at room temperature. Subsequently, 50 μL of PBS 1X-Saponin 0.1% + anti-T. cruzi antibody (from serum of infected patients) at a 1:10 dilution was added, and the plate was incubated for 1 h at room temperature. The wells were then washed four times with PBS 1X-Saponin 0.1%, and 50 μL of PBS 1X-Saponin 0.1% + antihuman IgG-FITC at a 1:200 dilution was added. The plate was incubated wrapped in aluminum foil for 30 min. After incubation, the plate was washed four times with PBS 1X-Saponin 0.1%, and 50 μL of PBS 1X was added to all wells after the final wash. For nuclear staining, the plate, already stained with FITC, was washed three times with PBS 1X, and 200 μL of PBS 1X + 1 μL of iodide per well was added. After staining, the wells were washed again, and 100 μL of PBS 1X was added before imaging.
(§4) The plate was analyzed in the EVOS fluorescence microscope for image acquisition and fluorescence identification, in which the anti-IgG-FITC stains parasite′s membrane in green and iodide stains nuclei in red. On each condition of treatment, 200 cells of 3 wells were evaluated as to the number of infected cells and the number of parasites per cell for calculating the index of infection the IC50 were calculated by Nonlinear regression curves (log[inhibitor] vs normalized response). Selective index was calculated by dividing CC50 per IC50.

[5] = system: T. cruzi intracellular amastigotes (Colombian strain) in C2C12 cells; test: Antiamastigote activity, infection index, treatment after infection, C2C12; type: cell-based, Trypanosoma cruzi; details: Trypanosoma cruzi; infected C2C12, 48 h treatment after infection
Procedure: as §1, §2, §3, §4

[6] = Cellular viability (MTT), noninfected LLC-MK2; type: cell-based; details: rhesus monkey, noninfected LLC-MK2 epithelial cells; noninfected LLC-MK2, Table 2 (treatment after infection); read-out: CC50 non infected MK2
Procedure: as §2
(§5) Following 24 h of treatment, 10 μL of 5 mg/mL of MTT (3-(4,5-dimethylthiazol-2-yl)-2,5-diphenyltetrazolium bromide) was added per well, and absorbance was evaluated in the Eon Microplate Spectrophotometer Reader (BioTek) at 570–690 nm. CC50 were calculated by Nonlinear regression curves (log[inhibitor] vs normalized response).

[7] = Cellular viability (MTT), noninfected C2C12; type: cell-based, murine; details: mouse, noninfected C2C12 myoblast cells; noninfected C2C12, Table 2 (treatment after infection); read-out: CC50 non infected C2C12
Procedure: as §2
The LLC-MK2 (ATCC CCL-7) cell line of epithelial origin, and C2C12 (ATCC CRL-1772) myoblast cells, derived from murine myoblasts, were maintained in Roswell Park Memorial Institute-RPMI 1640 medium supplemented with L-glutamine, 25 mM HEPES (Corning), 10% (v/v) fetal bovine serum (FBS), and gentamicin (1 μL/mL). […] Once the cells reached 80% confluence, were detached using Trypsin-EDTA and prepared in the subsequent experiments.
as §5

[8] = system: trypomastigotes forms of T. cruzi Tulahuen strain (LacZ); design: method as in de Andrade et al., 2015; details: previous work of the group; ref de Andrade et al., 2015; read-out: IC50 against trypomastigotes forms of T. cruzi Tulahuen strain (LacZ); cited from earlier work
[9] = system: T. cruzi nitroreductase (TcNTR72); test: T. cruzi nitroreductase activity assay (NADH oxidation); details: 50 μM NADH, 25 °C
Procedure: TcNTR72 was expressed, purified, and its activity was tested following previously described protocol. […] This mixture was incubated at room temperature for 5 min. […] All assays were performed in triplicate for each measurement and for each concentration. Benznidazole was used as a control.

[10] = mouse, primary mouse macrophages (PMM)

Compound	CC50 [1, 10]	IC50 [2]	CC50 at 3 days ([3]; MRC-5SV2 lung fibroblast cells)	other results
O=[N+]([O-])c1ccc(Cn2cc(-c3ccccc3CO)nn2)cc1 [Compound 27, (2-(1-(4-Nitrobenzyl)-1H-1,2,3-triazol-4-yl)phenyl)methanol]	> 50 µM	> 50 µM	> 50 µM	
COc1cc(OC)cc(-c2cn(Cc3ccc([N+](=O)[O-])cc3)nn2)c1 [Compound 28, 4-(3,5-Dimethoxyphenyl)-1-(4-nitrobenzyl)-1H-1,2,3-triazole]	> 50 µM	> 50 µM	> 50 µM	
O=C(Cn1cc(-c2ccc([N+](=O)[O-])cc2)nn1)NCc1ccc(O)cc1 [Compound 12, N-(4-Hydroxybenzyl)-2-(4-(4-nitrophenyl)-1H-1,2,3-triazol-1-yl)acetamide]	> 50 µM	31 µM	> 50 µM	
O=C(O)Cn1cc(-c2ccc([N+](=O)[O-])cc2)nn1 [Compound 17, 2-(4-(4-Nitrophenyl)-1H-1,2,3-triazol-1-yl)acetic Acid]	> 50 µM	> 50 µM	> 50 µM	
O=[N+]([O-])c1ccc(Cn2cc(-c3cccnc3)nn2)cc1 [Compound 22, 3-(1-(4-Nitrobenzyl)-1H-1,2,3-triazol-4-yl)pyridine]	> 50 µM	4.17 µM	5.06 µM	
OC[C@@H](O)[C@@H](O[C@@H]1O[C@H](CO)[C@H](O)[C@H](O)[C@H]1O)[C@H](O)[C@@H](O)CO [lactitol]				IC50 (trans-sialidase (TcTS); acceptor analog): 570 µM
O=C(O)c1ccc(Cn2cc(-c3ccc([N+](=O)[O-])cc3)nn2)cc1 [Compound 18, 4-((4-(4-Nitrophenyl)-1H-1,2,3-triazol-1-yl)methyl)benzoic Acid]	> 50 µM	> 50 µM	> 50 µM	
O=C(Cn1cc(-c2ccc([N+](=O)[O-])cc2)nn1)NCc1ccccn1 [Compound 10, 2-(4-(4-Nitrophenyl)-1H-1,2,3-triazol-1-yl)-N-(yridine-2-ylmethyl)acetamide]	> 50 µM	> 50 µM	> 50 µM	
O=[N+]([O-])c1ccc(Cn2cc(-c3ccc(CO)cc3)nn2)cc1 [Compound 21, (4-(1-(4-Nitrobenzyl)-1H-1,2,3-triazol-4-yl)phenyl)methanol]	> 50 µM	> 50 µM	> 50 µM	
CC(=O)N[C@H]1[C@H]([C@H](O)[C@H](O)CO)OC(C(=O)O)=C[C@@H]1N=C(N)N [Zanamivir]				inhibition of trans-sialidase (trans-sialidase (TcTS)): weak inhibition of trans-sialidase in the millimolar range
N#Cc1ccc(CNC(=O)Cn2cc(-c3ccc([N+](=O)[O-])cc3)nn2)cc1 [Compound 13, N-(4-Cyanobenzyl)-2-(4-(4-nitrophenyl)-1H-1,2,3-triazol-1-yl)acetamide]	35.4 µM	> 50 µM	> 50 µM	
Nc1ccc(-c2cn(Cc3ccc([N+](=O)[O-])cc3)nn2)cc1 [Compound 23, 4-(1-(4-Nitrobenzyl)-1H-1,2,3-triazol-4-yl)aniline]	> 50 µM	> 50 µM	> 50 µM	
O=C(Cn1cc(-c2ccc([N+](=O)[O-])cc2)nn1)NCc1cccnc1 [Compound 11, 2-(4-(4-Nitrophenyl)-1H-1,2,3-triazol-1-yl)-N-((pyridin-3-yl)methyl)acetamide]	> 50 µM	> 50 µM	> 50 µM	
COc1cccc(-c2cn(Cc3ccc([N+](=O)[O-])cc3)nn2)c1 [Compound 26, 4-(3-Methoxyphenyl)-1-(4-nitrobenzyl)-1H-1,2,3-triazole]	> 50 µM	> 50 µM	> 50 µM	
Cn1cncc1-c1cn(Cc2ccc([N+](=O)[O-])cc2)nn1 [Compound 25, 4-(1-Methyl-1H-imidazol-5-yl)-1-(4-nitrobenzyl)-1H-1,2,3-triazole]	> 50 µM	> 50 µM	> 50 µM	
N#Cc1ccc(Cn2cc(-c3ccc([N+](=O)[O-])cc3)nn2)cc1 [Compound 15, 4-((4-(4-Nitrophenyl)-1H-1,2,3-triazol-1-yl)methyl)benzonitrile]	> 50 µM	> 50 µM	> 50 µM	
CC(=O)NC1C(O)C(F)C(F)(C(=O)O)OC1C(O)C(O)CO (stereo not drawn) [2,3-difluorosialic acid]				Ki (trans-sialidase (TcTS); irreversible inhibitors): 20000 µM
O=[N+]([O-])c1ccc(Cn2cc(-c3ccc([N+](=O)[O-])cc3)nn2)cc1 [Compound 24, 1-(4-Nitrobenzyl)-4-(4-nitrophenyl)-1H-1,2,3-triazole]		> 50 µM		CC50 ([1]; primary mouse macrophages, read-out: PMM CC50): > 50 µM; CC50 at 3 days [3]: > 50 µM
O=C(Cn1ccnc1[N+](=O)[O-])NCc1ccccc1 [BZN, reference compound]		1.64 µM		IC50 ([4]; Trypanosoma cruzi, LLC-MK2, 48 h): 1.43 ± 0.1 µM; IC50 [4]: 1.4 ± 0.1 µM; IC50 [5]: 6 ± 1 µM; CC50 at 24 h [6]: 46.9 µM; CC50 at 24 h [7]: 74.4 µM; IC50 [8]: 34 µM; Kobs (12.5 μM) ([9]; compound 12.5 μM): 0.13 ± 0.01 s^–1; Kobs (25 μM) ([9]; compound 25 μM): 0.17 ± 0.05 s^–1; Kobs (50 μM) ([9]; compound 50 μM): 0.32 ± 0.04 s^–1; Kobs (100 μM) ([9]; compound 100 μM): 0.23 ± 0.07 s^–1
CCOC(=O)C1=C[C@@H](OC(CC)CC)[C@H](NC(C)=O)[C@@H](N)C1 [Oseltamivir]				inhibition of trans-sialidase (trans-sialidase (TcTS)): weak inhibition of trans-sialidase in the millimolar range
